Laboratory results taken from patent publication US20260240975A1, “VALIDATED HPV16-DERIVED S[…]” (Deutsches Krebsforschungszentrum Stiftung des öffentlichen …, priority 2023, published 2026).
Read-outs that look alike come from different tables or passages of the source. No end group written: not given here.

What was measured:
[1] = system: short-term antigen-specific T cell lines generated from PBMCs; set-up: key: +: ELISPOT: Immungenicity of the peptide shown by IFN-gamma ELISPOT analysis; * Highlights data from published resources; +*: * Highlights data from published resources; conditions: marked * (published resources), cited from earlier work
[2] = system: short-term antigen-specific T cell lines generated from PBMCs; test: Interferon-γ ELISpot assay on short-term T cell lines; type: cell-based, human; set-up: key: +: ELISPOT: Immungenicity of the peptide shown by IFN-gamma ELISPOT analysis; * Highlights data from published resources; +*: * Highlights data from published resources
[3] = system: peptide-specific T cell cultures; test: T cell phenotyping and intracellular cytokine staining (flow cytometry); type: cell-based, human; set-up: key: +: cytokine: Immunogenicity of the peptide shown by intracellular cytokine staining (IFN-gamma, TNF-alpha); conditions: IFN-gamma, TNF-alpha
HPV16-positive cells = test: Cytotoxicity assay (VITAL FR / live-cell imaging) with peptide-specific CD8+ T cells; type: cell-based, human; set-up: key: +: cytotox: Ability of peptide-specific T cells to kill HPV16-positive cells
Procedure: The flow cytometry based VITAL FR cytotoxicity assay was used as published by Stanke et al. (Stanke et al., 2010) to assess whether peptide-specific T cells are able to specifically kill HPV-transformed target cells. Briefly, two HLA-A2^+ cell lines, a HPV16-negative (HPV16^−) control cell line (C33A) and a HPV16-positive (HPV16^+) target cell line (CaSki) were fluorescently labeled with either FarRed or CFSE and were co-incubated with peptide-specific CD8^+ T cells as effector cells. After 48 h co-incubation, the fluorescently labeled cells were analyzed by flow cytometry to determine the surviving cells and calculate the specific cytolytic function of the effector cells by the ratio of target and control cells.
CaSki and C33A cells were fluorescently labeled with CFSE and FarRed, respectively. Cells of both cell lines were harvested and resuspended in plain RPMI medium at a concentration of 1×10^6 cells/mL. For cell labeling, 5 μM CSFE were added to CaSki cells and 0.25 μM FarRed were added to C33A cells. The cells were incubated at 37° C. and the reaction was stopped after 10 min by addition of 50 mL RPMI with 10% FBS. The cells were centrifuged at 300 xg for 5 min, the supernatant was discarded and the cells were resuspended in their cell culture medium. The labeled cells were seeded in T25 cell culture flasks with 1-2×10^6 cells/flask.
On the next day, the labeled CaSki and C33A as well as the epitope-specific semi-long-term T cell lines (described in 1.6) were harvested. CD8^+ T cells were isolated from the epitope-specific semi-long-term T cell lines using the MACS CD8^+ T cell isolation kit (Miltenyi Biotec) according to the manufacturer's protocol for LS columns. The CD8^+ T cells were resuspended in T cell medium and added to wells of a F-bottom 96-well plate in serial dilutions to achieve triplicates of 6×10^4, 3×10^4, 1.5×10^4, 0.75×10^4 and 0.375×10^4 cells per well. The CaSki and C33A cells were mixed 1:1 in T cell medium and 3×10^3 cells were added to each well containing T cells. Thereby effector:target (E:T) ratios of […] were achieved. Additionally, triplicates of mixed target cells without T cells were seeded, which is referred to as E:T 0. After 48 h incubation at 37° C., 5% CO2, the cells were harvested and analyzed at a BD FACS Canto™ II analyzer using the BD FACS Diva Software Version 6. The obtained data were analyzed with the FlowJo software Version 10 by applying the same gating strategy to all samples. Subsequently, the equations (1) and (2) given below were applied in Excel (Microsoft Office 2016) to calculate specific killing.
Semi long-term T cell lines were set up to obtain high numbers of T cells, which are required for the analysis of epitope specific cytotoxic T cell responses in VITAL FR cytotoxicity assays. Autologous DCs were generated from PBMCs as described in 1.7 and loaded with the desired HPV16 peptide. PBMCs of the same donor were thawed and resuspended in T cell medium supplemented with rhIL-7 (10 ng/mL) and rhIL-15 (20 ng/mL). 1×10^7 PBMCs/well were seeded to a 24-well plate in a total volume of 1 mL/well. Peptide-loaded DCs were added in a ratio of 50:1 (PBMCs:DCs) in 1 mL rhIL-7 (10 ng/mL) and rhIL-15 (20 ng/mL) supplemented T cell medium to achieve a final volume of 2 mL. The cell cultures were fed with rhIL-2 (final concentration: 40 U/mL) every other day. If the medium turned yellow the feeding was combined with a half medium change with 1 mL fresh IL-2 supplemented T cell medium. After eight days, the peptide stimulation with peptide-loaded DCs was repeated and cultivation was continued. On day 15, the T cell lines were harvested and used for CD8^+ T cell isolation and cytotoxicity assays.
In addition to the VITAL FR assay described herein above, a newly established live-cell imaging-based cytotoxicity assay was applied. […]

1 (ISEYRHYCY; Human papillomavirus 16) [compound 1]
ELISpot ([1]; HLA restriction A01): +*

2 (HGDTPTLHEY; Human papillomavirus 16) [compound 2]
ELISpot ([1]; HLA restriction A01): +*

34 (CVYCKQQLLR; Human papillomavirus 16) [compound 34]
ELISpot ([2]; HLA restriction A03): +
ELISpot ([1]; HLA restriction A11): *

43 (AVCDKCLKFY; Human papillomavirus 16) [compound 43]
ELISpot ([2]; HLA restriction A03): +
ELISpot ([2]; HLA restriction B15): +
ELISpot ([1]; HLA restriction A11): +*
cytokine ([3]; HLA restriction A03): +
cytokine ([3]; HLA restriction A11): +
cytokine ([3]; HLA restriction B15): +

46 (GIVCPICSQK; Human papillomavirus 16) [compound 46]
ELISpot ([2]; HLA restriction A03): +
cytokine ([3]; HLA restriction A03): +

55 (DLLIRCINCQK; Human papillomavirus 16) [compound 55]
ELISpot ([2]; HLA restriction A11): +
cytokine ([3]; HLA restriction A11): +

61 (RAHYNIVTF; Human papillomavirus 16) [compound 61]
ELISpot ([2]; HLA restriction B15): +
ELISpot ([1]; HLA restriction B07): +*

62 (TFCCKCDSTL; Human papillomavirus 16) [compound 62]
ELISpot ([2]; HLA restriction A24): +
cytotox (HPV16-positive cells; HLA restriction A24): +

66 (PDRAHYNIVTF; Human papillomavirus 16) [compound 66]
ELISpot ([2]; HLA restriction A24): +
cytokine ([3]; HLA restriction A24): +

67 (DRAHYNIVTF; Human papillomavirus 16) [compound 67]
ELISpot ([2]; HLA restriction A24): +
cytokine ([3]; HLA restriction A24): +

68 (HYNIVTFCC; Human papillomavirus 16) [compound 68]
ELISpot ([2]; HLA restriction A24): +
cytokine ([3]; HLA restriction A24): +

71 (HYCYSLYGTTL; Human papillomavirus 16) [compound 71]
ELISpot ([2]; HLA restriction A24): +
cytokine ([3]; HLA restriction A24): +

76 (RPRKLPQL; Human papillomavirus 16) [compound 76]
ELISpot ([2]; HLA restriction B07): +
cytokine ([3]; HLA restriction B07): +

77 (TPTLHEYML; Human papillomavirus 16) [compound 77]
ELISpot ([1]; HLA restriction B07): *

78 (RPRKLPQLCTE; Human papillomavirus 16) [compound 78]
ELISpot ([2]; HLA restriction B07): +
cytokine ([3]; HLA restriction B07): +

80 (NIRGRWTGRCM; Human papillomavirus 16) [compound 80]
ELISpot ([2]; HLA restriction B07): +
ELISpot ([2]; HLA restriction B15): +
cytokine ([3]; HLA restriction B07): +

81 (EPDRAHYNIV; Human papillomavirus 16) [compound 81]
ELISpot ([2]; HLA restriction B07): +
cytokine ([3]; HLA restriction B07): +

85 (KQQLLRREVY; Human papillomavirus 16) [compound 85]
ELISpot ([2]; HLA restriction B15): +
cytokine ([3]; HLA restriction B15): +

86 (AFRDLCIVY; Human papillomavirus 16) [compound 86]
ELISpot ([2]; HLA restriction B15): +
cytokine ([3]; HLA restriction B15): +

87 (LQPETTDLY; Human papillomavirus 16) [compound 87]
ELISpot ([1]; HLA restriction B15): +*
cytokine ([3]; HLA restriction B15): +

88 (GQAEPDRAHY; Human papillomavirus 16) [compound 88]
ELISpot ([2]; HLA restriction B15): +
cytokine ([3]; HLA restriction B15): +

95 (YRHYCYSVY; Human papillomavirus 16) [compound 95]
ELISpot ([2]; HLA restriction B15): +
cytokine ([3]; HLA restriction B15): +

108 (KQRFHNIRGRW; Human papillomavirus 16) [compound 108]
ELISpot ([2]; HLA restriction B15): +
cytokine ([3]; HLA restriction B15): +

117 (RHYCYSLY; Human papillomavirus 16) [compound 117]
ELISpot ([2]; HLA restriction A03): +
cytokine ([3]; HLA restriction A03): 1

122 (RPRKLPDLCT; Human papillomavirus 16) [compound 122]
ELISpot ([2]; HLA restriction B07): +
cytokine ([3]; HLA restriction B07): +

IRTLEDLLMGT [compound 33]
cytotox (HPV16-positive cells; HLA restriction A02): +

LLMGTLGIVCP [compound 25]
cytotox (HPV16-positive cells; HLA restriction A02): +

LMGTLGIVCPI [compound 12]
cytotox (HPV16-positive cells; HLA restriction A02): +

MGTLGIVCPI [compound 14]
cytotox (HPV16-positive cells; HLA restriction A02): +

RLCVQSTHV [compound 11]
cytotox (HPV16-positive cells; HLA restriction A02): +

TTIHDIILECV [compound 30]
cytotox (HPV16-positive cells; HLA restriction A02): +

YMLDLQPE [compound 13]
cytotox (HPV16-positive cells; HLA restriction A02): +
